Source: US12643887B2, “Heterocyclic derivatives with cardiomyocyte proliferation activity for treatment of heart diseases” (Tongji University, priority 2019, dated 2026)

Key:
[1] = test system: Neonatal Rat Ventricular Myocytes (NRVMs); assay: Myocyte proliferation assay (EdU assay) in neonatal rat ventricular myocytes; assay type: cell-based; details: growth relative to blank myocyte growth without compound added; for Avg 1 uM (average myocyte proliferation): compound 1 uM; for Avg 3 uM (average myocyte proliferation): compound 3 uM; for Avg 10 uM (average myocyte proliferation): compound 10 uM
Procedure, shortened: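 After 36 h compound exposure (1, 3 or 10 uM in 6% FBS/ITS DMEM, following 24 h low-serum culture), NRVMs were pulsed with EdU for 12 h. Proliferation scored by automated confocal imaging of EdU click chemistry, ab8295 immunostaining and DAPI nuclei in fixed cultures.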

human CLK1 = biological target: T1, human CLK1 (Homo sapiens, UniProt P49759); assay: CLK1 enzyme assay (ADP-Glo); assay type: biochemical; details: ADP-Glo, ATP 10 μM; read-out: CLK1 IC50
T1 construct: Recombinant human CLK1 (129-end); GST (N); purchased SignalChem C57-11G; host or cells: Sf9 insect cells
T1 sequence (P49759 129-484 limits assumed): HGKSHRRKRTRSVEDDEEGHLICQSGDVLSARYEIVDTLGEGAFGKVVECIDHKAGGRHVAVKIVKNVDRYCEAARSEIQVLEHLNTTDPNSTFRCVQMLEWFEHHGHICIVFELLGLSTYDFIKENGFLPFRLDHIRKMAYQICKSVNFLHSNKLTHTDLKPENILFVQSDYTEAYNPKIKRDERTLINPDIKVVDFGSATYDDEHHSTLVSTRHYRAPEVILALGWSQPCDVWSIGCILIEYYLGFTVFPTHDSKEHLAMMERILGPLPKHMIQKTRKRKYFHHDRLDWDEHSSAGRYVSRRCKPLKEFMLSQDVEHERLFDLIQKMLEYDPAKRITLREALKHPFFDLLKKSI
Procedure, shortened: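 GST-tagged CLK1 (129-end, Sf9-expressed) at 16 nM was preincubated with compound 30 min at 25 °C in 40 mM Tris pH 7.5, 20 mM MgCl2, 0.1 mg/ml BSA, 50 μM DTT. Reaction with 2 μM substrate and 10 μM ATP ran 60 min at 25 °C. ADP-Glo luminescence gave IC50 by four-parameter fit.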

| Compound | Avg 1 uM (average myocyte proliferation) [1] | Avg 3 uM (average myocyte proliferation) [1] | IC50 (human CLK1) [nM] | Avg 10 uM (average myocyte proliferation) [1] |
| --- | --- | --- | --- | --- |
| O=C1NC(Nc2ccc3ncsc3c2)=N/C1=C\c1ccc2nc[nH]c2c1 [Example 76, (Z)-5-((1H-benzo[d]imidazol-6-yl)methylene)-2-(benzo[d]thiazol-6-ylamino)-3,5-dihydro-4H-imidazol-4-one] | * (<10% growth relative to blank myocyte growth without compound added.) | ** (10%-50%) | < 100 | – |
| O=C1NC(Nc2ccccc2)=N/C1=C\c1ccc2ncccc2c1 [Example 53, (Z)-2-(phenylamino)-5-(quinolin-6-ylmethylene)-3,5-dihydro-4H-imidazol-4-one] | ** (10%-50%) | *** (>50%) | < 100 | ** (10%-50%) |
| NC1=N/C(=C\c2ccc3ncsc3c2)C(=O)N1 [Example 103, (Z)-2-amino-5-(benzo[d]thiazol-6-ylmethylene)-3,5-dihydro-4H-imidazol-4-one] | ** (10%-50%) | ** (10%-50%) | < 100 | – |
| CN(C1=N/C(=C\c2ccc3c(c2)OC(F)(F)O3)C(=O)N1)c1ccccc1 [Example 17, (Z)-5-((2,2-difluorobenzo[d][1,3]dioxol-5-yl)methylene)-2-(methyl(phenyl)amino)-3,5-dihydro-4H-imidazol-4-one] | * (<10% growth relative to blank myocyte growth without compound added.) | * (<10% growth relative to blank myocyte growth without compound added.) | > 10000 | * (<10% growth relative to blank myocyte growth without compound added.) |
| O=C1NC(Nc2ccc3ncsc3c2)=N/C1=C\c1ccc2occc2c1 [Example 59, (Z)-2-(benzo[d]thiazol-6-ylamino)-5-(benzofuran-5-ylmethylene)-3,5-dihydro-4H-imidazol-4-one] | * (<10% growth relative to blank myocyte growth without compound added.) | * (<10% growth relative to blank myocyte growth without compound added.) | > 10000 | – |
| CN(C1=N/C(=C\c2ccc3ncsc3c2)C(=O)N1)c1ccc(N)cc1 [Example 44, (Z)-2-((4-aminophenyl)(methyl)amino)-5-(benzo[d]thiazol-6-ylmethylene)-3,5-dihydro-4H-imidazol-4-one] | *** (>50%) | ** (10%-50%) | 100 to 1000 | ** (10%-50%) |
| O=C1NC(N(Cc2ccccc2)c2ccccc2)=N/C1=C\c1ccc2ncsc2c1 [Example 41, (Z)-5-(benzo[d]thiazol-6-ylmethylene)-2-(benzyl(phenyl)amino)-3,5-dihydro-4H-imidazol-4-one] | * (<10% growth relative to blank myocyte growth without compound added.) | * (<10% growth relative to blank myocyte growth without compound added.) | < 100 | ** (10%-50%) |
| CN(C1=N/C(=C\c2ccc3c(c2)OCO3)C(=O)N1)c1cccnc1 [Example 18, (Z)-5-(benzo[d][1,3]dioxol-5-ylmethylene)-2-(methyl(pyridin-3-yl)amino)-3,5-dihydro-4H-imidazol-4-one] | * (<10% growth relative to blank myocyte growth without compound added.) | * (<10% growth relative to blank myocyte growth without compound added.) | 100 to 1000 | ** (10%-50%) |
| COc1ccc(NC2=N/C(=C\c3ccc4ncsc4c3)C(=O)N2)cc1 [Example 25, (Z)-5-(benzo[d]thiazol-6-ylmethylene)-2-((4-methoxyphenyl)amino)-3,5-dihydro-4H-imidazol-4-one] | ** (10%-50%) | * (<10% growth relative to blank myocyte growth without compound added.) | < 100 | * (<10% growth relative to blank myocyte growth without compound added.) |
| O=C1NC(Nc2ccccc2)=N/C1=C\c1ccc2scnc2c1 [Example 14, (Z)-5-(benzo[d]thiazol-5-ylmethylene)-2-(phenylamino)-3,5-dihydro-4H-imidazol-4-one] | * (<10% growth relative to blank myocyte growth without compound added.) | ** (10%-50%) | > 10000 | – |
| O=C1NC(N(CC2CC2)c2ccc3ncsc3c2)=N/C1=C\c1ccc2ncsc2c1 [Example 105, (Z)-2-(benzo[d]thiazol-6-yl(cyclopropylmethyl)amino)-5-(benzo[d]thiazol-6-ylmethylene)-3,5-dihydro-4H-imidazol-4-one] | ** (10%-50%) | ** (10%-50%) | > 10000 | – |
| Cn1cnc2cc(NC3=N/C(=C\c4ccc5ncsc5c4)C(=O)N3)ccc21 [Example 61, (Z)-5-(benzo[d]thiazol-6-ylmethylene)-2-((1-methyl-1H-benzo[d]imidazol-5-yl)amino)-3,5-dihydro-4H-imidazol-4-one] | * (<10% growth relative to blank myocyte growth without compound added.) | ** (10%-50%) | 100 to 1000 | – |
| O=C1NC(Nc2ccccc2)=N/C1=C\c1ccc2[nH]ncc2c1 [Example 55, (Z)-5-((1H-indazol-5-yl)methylene)-2-(phenylamino)-3,5-dihydro-4H-imidazol-4-one] | * (<10% growth relative to blank myocyte growth without compound added.) | * (<10% growth relative to blank myocyte growth without compound added.) | < 100 | – |
| CN(CCN1CCOCC1)C1=N/C(=C\c2ccc3c(c2)OCO3)C(=O)N1 [Example 20, (Z)-5-(benzo[d][1,3]dioxol-5-ylmethylene)-2-(methyl(2-morpholinoethyl)amino)-3,5-dihydro-4H-imidazol-4-one] | * (<10% growth relative to blank myocyte growth without compound added.) | * (<10% growth relative to blank myocyte growth without compound added.) | 100 to 1000 | ** (10%-50%) |
| O=C1NC(Nc2ccccc2)=N/C1=C\c1ccc2cn[nH]c2c1 [Example 54, (Z)-5-((1H-indazol-6-yl)methylene)-2-(phenylamino)-3,5-dihydro-4H-imidazol-4-one] | * (<10% growth relative to blank myocyte growth without compound added.) | * (<10% growth relative to blank myocyte growth without compound added.) | > 10000 | – |
| CN(C1=N/C(=C\c2ccc3c(c2)OCO3)C(=O)N1)c1ccccc1 [Example 1, (Z)-5-(benzo[d][1,3]dioxol-5-ylmethylene)-2-(methyl(phenyl)amino)-3,5-dihydro-4H-imidazol-4-one] | * (<10% growth relative to blank myocyte growth without compound added.) | *** (>50%) | 100 to 1000 | ** (10%-50%) |
| O=C1NC(N(CC2CC2)c2ccccc2)=N/C1=C\c1ccc2c(c1)OCO2 [Example 10, (Z)-5-(benzo[d][1,3]dioxol-5-ylmethylene)-2-((cyclopropylmethyl)(phenyl)amino)-3,5-dihydro-4H-imidazol-4-one] | ** (10%-50%) | * (<10% growth relative to blank myocyte growth without compound added.) | 100 to 1000 | *** (>50%) |
| O=C1NC(Nc2ccc3ncsc3c2)=N/C1=C\c1ccc2scnc2c1 [Example 57, (Z)-5-(benzo[d]thiazol-5-ylmethylene)-2-(benzo[d]thiazol-6-ylamino)-3,5-dihydro-4H-imidazol-4-one] | * (<10% growth relative to blank myocyte growth without compound added.) | * (<10% growth relative to blank myocyte growth without compound added.) | < 100 | – |
| Cn1cnc2ccc(/C=C3\N=C(Nc4ccc5ncsc5c4)NC3=O)cc21 [Example 75, (Z)-2-(benzo[d]thiazol-6-ylamino)-5-((1-methyl-1H-benzo[d]imidazol-6-yl)methylene)-3,5-dihydro-4H-imidazol-4-one] | ** (10%-50%) | ** (10%-50%) | < 100 | – |
